{
  "source": "paper PMC4844176",
  "about": "(Xenobiotica; the fate of foreign compounds in biological …, 2015)",
  "key": {"UGT1A4": {"target": "T1, UGT1A4 (Homo sapiens, UniProt P22310)", "T1 sequence (P22310 29-534)": "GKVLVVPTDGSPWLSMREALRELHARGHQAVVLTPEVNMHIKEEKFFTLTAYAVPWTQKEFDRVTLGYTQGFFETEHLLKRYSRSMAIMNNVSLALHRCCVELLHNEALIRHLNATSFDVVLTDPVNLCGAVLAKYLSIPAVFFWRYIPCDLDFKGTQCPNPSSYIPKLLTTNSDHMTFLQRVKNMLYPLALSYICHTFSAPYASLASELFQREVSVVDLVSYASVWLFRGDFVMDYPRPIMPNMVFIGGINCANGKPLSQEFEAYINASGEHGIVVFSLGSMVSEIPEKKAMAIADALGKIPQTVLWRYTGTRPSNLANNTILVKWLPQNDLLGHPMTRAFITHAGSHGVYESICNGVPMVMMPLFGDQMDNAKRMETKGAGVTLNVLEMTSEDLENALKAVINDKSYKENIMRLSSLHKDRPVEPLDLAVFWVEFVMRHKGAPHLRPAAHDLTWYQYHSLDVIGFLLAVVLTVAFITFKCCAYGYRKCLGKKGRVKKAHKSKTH", "settings": "pH 7.5; for velocity of AP-G formation: 60 min"}, "in vitro": {"experiment": "in vitro", "settings": "human, microsomes, pH 7.5"}, "[1]": {"test_system": "UGTs in human intestinal microsomes (HIM)", "experiment": "in vitro", "settings": "pH 7.5"}, "UGT1A7": {"target": "T2, UGT1A7 (Homo sapiens, UniProt Q9HAW7)", "T2 sequence (Q9HAW7 26-530)": "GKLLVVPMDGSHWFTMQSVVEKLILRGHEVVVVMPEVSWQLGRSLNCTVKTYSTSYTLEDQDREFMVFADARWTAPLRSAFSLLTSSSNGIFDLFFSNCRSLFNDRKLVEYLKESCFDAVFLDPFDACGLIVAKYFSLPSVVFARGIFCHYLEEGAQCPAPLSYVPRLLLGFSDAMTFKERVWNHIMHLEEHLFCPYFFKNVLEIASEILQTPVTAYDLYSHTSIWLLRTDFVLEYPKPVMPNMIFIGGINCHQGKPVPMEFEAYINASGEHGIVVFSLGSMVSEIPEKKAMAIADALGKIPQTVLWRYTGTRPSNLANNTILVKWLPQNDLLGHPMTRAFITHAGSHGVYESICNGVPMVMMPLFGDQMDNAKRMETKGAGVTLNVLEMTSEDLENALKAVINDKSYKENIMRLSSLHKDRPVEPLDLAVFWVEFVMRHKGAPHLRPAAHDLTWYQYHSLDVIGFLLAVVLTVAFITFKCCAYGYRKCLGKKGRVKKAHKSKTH", "experiment": "Screening for aprepitant glucuronidation, UGT1A7 Supersomes", "type": "in vitro ADME", "settings": "UGT1A7, 5 and 250 µM aprepitant"}, "[2]": {"settings": "ref Lasseter et al., 2007, Takahashi et al., 2011; cited from earlier work"}, "UGT2B15": {"target": "T3, UGT2B15 (Homo sapiens, UniProt P54855)", "T3 sequence (P54855 24-530)": "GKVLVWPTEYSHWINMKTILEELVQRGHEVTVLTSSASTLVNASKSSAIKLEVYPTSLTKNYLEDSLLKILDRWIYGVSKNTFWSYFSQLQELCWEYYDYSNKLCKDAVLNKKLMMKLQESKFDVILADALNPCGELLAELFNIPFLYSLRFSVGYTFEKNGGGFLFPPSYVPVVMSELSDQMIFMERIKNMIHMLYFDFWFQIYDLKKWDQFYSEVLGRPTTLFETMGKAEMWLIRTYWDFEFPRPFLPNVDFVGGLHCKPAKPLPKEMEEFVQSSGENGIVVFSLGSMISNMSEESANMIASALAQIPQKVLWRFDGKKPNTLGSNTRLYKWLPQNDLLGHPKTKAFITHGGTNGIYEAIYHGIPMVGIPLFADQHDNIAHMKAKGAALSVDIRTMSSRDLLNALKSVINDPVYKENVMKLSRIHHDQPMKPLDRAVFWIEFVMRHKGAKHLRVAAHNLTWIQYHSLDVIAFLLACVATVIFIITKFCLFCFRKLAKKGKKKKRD", "experiment": "Screening for aprepitant glucuronidation, UGT2B15 Supersomes", "type": "in vitro ADME", "settings": "UGT2B15, 5 and 250 µM aprepitant"}, "other UGTs": {"test_system": "other UGTs", "experiment": "Inhibition by aprepitant of other UGTs", "type": "in vitro ADME, human", "settings": "1 µM aprepitant, UGTs other than UGT2B7"}, "UGT2B10": {"target": "T4, UGT2B10 (Homo sapiens, UniProt P36537)", "T4 sequence (P36537 24-528)": "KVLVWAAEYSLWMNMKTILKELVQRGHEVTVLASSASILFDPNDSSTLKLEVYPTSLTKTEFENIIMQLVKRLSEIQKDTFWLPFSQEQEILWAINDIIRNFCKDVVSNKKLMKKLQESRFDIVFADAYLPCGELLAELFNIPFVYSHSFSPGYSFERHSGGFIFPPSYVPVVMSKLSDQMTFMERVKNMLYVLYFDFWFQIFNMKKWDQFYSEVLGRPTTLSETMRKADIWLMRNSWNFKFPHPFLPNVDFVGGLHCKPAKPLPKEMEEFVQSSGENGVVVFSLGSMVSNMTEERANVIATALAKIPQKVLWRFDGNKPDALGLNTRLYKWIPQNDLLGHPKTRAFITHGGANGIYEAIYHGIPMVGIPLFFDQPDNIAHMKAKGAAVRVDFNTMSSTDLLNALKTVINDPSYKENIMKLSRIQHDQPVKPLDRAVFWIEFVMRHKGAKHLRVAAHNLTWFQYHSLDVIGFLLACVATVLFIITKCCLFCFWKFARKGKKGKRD", "experiment": "Screening for aprepitant glucuronidation, UGT2B10 Supersomes", "type": "in vitro ADME", "settings": "UGT2B10, 5 and 250 µM aprepitant"}},
  "note": "Where two headings read alike, the source gives them in different places.",
  "data": [
    {"smiles": "C[C@@H](O[C@H]1OCCN(Cc2n[nH]c(=O)[nH]2)[C@H]1c1ccc(F)cc1)c1cc(C(F)(F)F)cc(C(F)(F)F)c1", "note": "[aprepitant, Aprepitant]", "values": [
      {"measurement": "velocity of AP-G formation", "setting": "UGT1A4; 5 µM", "value": "124.6 ± 6.4", "unit": "fmol/min/mg protein"},
      {"measurement": "velocity of AP-G formation", "setting": "UGT1A4; 250 µM", "value": "2,710 ± 157.2 fmol/min/mg protein"},
      {"measurement": "CLint", "setting": "UGT1A4; recombinant enzyme", "value": 28, "unit": "µl/min/µg protein"},
      {"measurement": "microsomal CLint", "setting": "in vitro", "value": 5600, "unit": "µL/min/mg"},
      {"measurement": "Km at 60 min", "setting": "[1]", "value": "63 ± 5", "unit": "µM"},
      {"measurement": "AP-G formation", "setting": "UGT1A7", "value": "not detected"},
      {"measurement": "systemic circulation concentration in patients", "setting": "[2]", "value": "approximately 5 µM"},
      {"measurement": "AP-G formation", "setting": "UGT2B15", "value": "not detected"},
      {"measurement": "inhibition of other UGTs", "setting": "other UGTs", "value": "< 10", "unit": "%"},
      {"measurement": "AP-G formation", "setting": "UGT2B10", "value": "not detected"}
    ]}
  ]
}
